Measurements from patent publication US12364696B2, “Treatment of autoimmune disease” (priority 2019, dated 2025).

Tests used:
[1] = test system: patients with alopecia areata; details: oral tofacitinib 5 mg twice daily for 3 months; cited from earlier work
[2] = Pharmacokinetics of sublingual tofacitinib, plasma LC MS/MS; type: in vivo, human; details: for concentration at 24 h: other: sublingual
Procedure: Blood samples were left to coagulate at room temperature for 20 minutes before centrifuging at 3500 rotations per minute for 15 minutes. The resulting separated plasma was extracted and stored at −20 degrees Celsius prior to processing using the liquid chromatography tandem mass spectrometry (LC MS/MS) method.
The mobile phase consisted of (A) 5 mM ammonium acetate pH 4 and (B) methanol. The gradient profile developed was: 0-2.0 min, 90% A, 10% B; 2.0-3.0 min, 30% A, 70% B; 3.0-4.0 min, 90% A, 10% B. A Shimadzu LC MS/MS-8050 triple quadrupole mass spectrometer (Shimadzu, Kyoto, Japan) was used to perform the mass spectrometry. MS/MS analysis was performed in positive ion mode using electrospray ionization conditions.

[3] = test system: folliculitis decalvans and tufted folliculitis; assay: Additional case studies (data not shown); type: in vivo, human; details: sublingual

## C[C@@H]1CCN(C(=O)CC#N)C[C@@H]1N(C)c1ncnc2[nH]ccc12 [tofacitinib]
[1]
  Patients achieving a 50% or greater reduction in SALT score: 32%
[2]; Week 28, last dose, 15 patients
  Number of patients who achieved tmax at 0.5 hour: One
[2]; Week 28, pre-dose, 10 patient samples
  Trace plasma levels prior to the last dose (range): 0.5 to 10.0 ng/mL
[2]; human, plasma, 5 mg, sublingual, Week 28 (FIG. 5b), read-out: Estimated elimination half-life (plasma concentration halving from 29.14 ng/ml to 14.6 ng/ml) (converted)
  half-life: ~11 h
[2]; human, plasma, 5 mg, Week 16, likely spuriously elevated by the nocte dose
  concentration at 24 h: 7.39 ng/mL
[2]; human, plasma, 5 mg, Week 28, no nocte dose
  concentration at 24 h: 0.28 ng/mL
[2]; human, plasma, sublingual, 5 mg tablet, read-out: Average time (tmax) to maximum plasma concentration
  Tmax: 1 h
[2]; human, plasma, sublingual, 5 mg tablet, read-out: Maximum plasma concentration (Cmax), average
  Cmax: 43.2 ng/mL
[3]
  Usefulness for treatment of folliculitis decalvans and tufted folliculitis: useful
